Measurements: the supplement of paper PMC10307832

How the values were obtained:
Assay in all cases: relative viability (nuclei count vs DMSO), 5 days (fraction); higher = more cells survive
201T = test system: 201T
Procedure, shortened: (§1)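 Dosing by pin tool came one day after lung cancer cell lines were seeded in 1536-well plates, using either one drug or a fixed anchor-drug dose plus five library-drug doses (not always all listed) in √10 steps. After 5 days, nuclei were counted on 4× images. Relative viability is treated-well nuclei count divided by vehicle-well nuclei count, and values are medians of duplicate plates.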

ABC-1 = test system: ABC-1
Procedure, shortened: as §1

CAL-12T = test system: CAL-12T
Procedure, shortened: as §1

COR-L23 = test system: COR-L23
Procedure, shortened: as §1

HCC-44 = test system: HCC-44
Procedure, shortened: as §1

HOP-62 = test system: HOP-62
Procedure, shortened: as §1

LC-2-ad = test system: LC-2-ad
Procedure, shortened: as §1

LCLC-103H = test system: LCLC-103H
Procedure, shortened: as §1

NCI-H1355 = test system: NCI-H1355
Procedure, shortened: as §1

NCI-H1395 = test system: NCI-H1395
Procedure, shortened: as §1

NCI-H1651 = test system: NCI-H1651
Procedure, shortened: as §1

NCI-H1666 = test system: NCI-H1666
Procedure, shortened: as §1

NCI-H1993 = test system: NCI-H1993
Procedure, shortened: as §1

NCI-H2085 = test system: NCI-H2085
Procedure, shortened: as §1

NCI-H2170 = test system: NCI-H2170
Procedure, shortened: as §1

NCI-H2228 = test system: NCI-H2228
Procedure, shortened: as §1

NCI-H2347 = test system: NCI-H2347
Procedure, shortened: as §1

NCI-H23 = test system: NCI-H23
Procedure, shortened: as §1

NCI-H322M = test system: NCI-H322M
Procedure, shortened: as §1

NCI-H520 = test system: NCI-H520
Procedure, shortened: as §1

NCI-H647 = test system: NCI-H647
Procedure, shortened: as §1

NCI-H661 = test system: NCI-H661
Procedure, shortened: as §1

NCI-H838 = test system: NCI-H838
Procedure, shortened: as §1

In the case of `O=c1[nH]c2ccccc2n1C1CCN(CCCC(c2ccc(F)cc2)c2ccc(F)cc2)CC1` [Pimozide] + COc1cccc2cc(-c3nc([C@H]4CC[C@H](C(=O)O)CC4)n4ncnc(N)c34)[nH]c12 [OSI-027] (partner 0.5 µM), the relative viability (201T; first compound 0.08 µM) is reported as 0.821, the relative viability (201T; first compound 0.253 µM) is reported as 0.825 and the relative viability (201T; first compound 0.8 µM) is reported as 0.711. It also gave a relative viability (201T; first compound 2.53 µM) of 0.709, a relative viability (201T; first compound 8 µM) of 0.584 and a relative viability (ABC-1; first compound 0.08 µM) of 0.514. The relative viability (ABC-1; first compound 0.253 µM) was 0.496, the relative viability (ABC-1; first compound 0.8 µM) was 0.422 and the relative viability (ABC-1; first compound 2.53 µM) was 0.351. The relative viability (ABC-1; first compound 8 µM) was 0.354, the relative viability (CAL-12T; first compound 0.08 µM) was 0.756 and the relative viability (CAL-12T; first compound 0.253 µM) was 0.706. For the same compound, the relative viability (CAL-12T; first compound 0.8 µM) was 0.673, the relative viability (CAL-12T; first compound 2.53 µM) was 0.41 and the relative viability (CAL-12T; first compound 8 µM) was 0.561. It also gave a relative viability (COR-L23; first compound 0.08 µM) of 0.757, a relative viability (COR-L23; first compound 0.253 µM) of 0.75 and a relative viability (COR-L23; first compound 0.8 µM) of 0.694. For the same compound, the relative viability (COR-L23; first compound 2.53 µM) was 0.731, the relative viability (COR-L23; first compound 8 µM) was 0.639 and the relative viability (HCC-44; first compound 0.08 µM) was 0.489. The relative viability (HCC-44; first compound 0.253 µM) was 0.554, the relative viability (HCC-44; first compound 0.8 µM) was 0.4 and the relative viability (HCC-44; first compound 2.53 µM) was 0.52. For the same compound, the relative viability (HCC-44; first compound 8 µM) was 0.289, the relative viability (HOP-62; first compound 0.08 µM) was 0.859 and the relative viability (HOP-62; first compound 0.253 µM) was 0.806. The relative viability (HOP-62; first compound 2.53 µM) was 0.759, the relative viability (HOP-62; first compound 8 µM) was 0.773 and the relative viability (LC-2-ad; first compound 0.08 µM) was 0.694. It also gave a relative viability (LC-2-ad; first compound 0.253 µM) of 0.875, a relative viability (LC-2-ad; first compound 0.8 µM) of 0.735 and a relative viability (LC-2-ad; first compound 2.53 µM) of 0.681. It also gave a relative viability (LC-2-ad; first compound 8 µM) of 0.635, a relative viability (LCLC-103H; first compound 0.08 µM) of 0.482 and a relative viability (LCLC-103H; first compound 0.253 µM) of 0.452. It also gave a relative viability (LCLC-103H; first compound 0.8 µM) of 0.384, a relative viability (LCLC-103H; first compound 2.53 µM) of 0.425 and a relative viability (LCLC-103H; first compound 8 µM) of 0.423. For the same compound, the relative viability (NCI-H1355; first compound 0.08 µM) was 0.326, the relative viability (NCI-H1355; first compound 0.253 µM) was 0.398 and the relative viability (NCI-H1355; first compound 0.8 µM) was 0.305. It also gave a relative viability (NCI-H1355; first compound 2.53 µM) of 0.357, a relative viability (NCI-H1355; first compound 8 µM) of 0.34 and a relative viability (NCI-H1395; first compound 0.08 µM) of 0.642. For the same compound, the relative viability (NCI-H1395; first compound 0.253 µM) was 0.611, the relative viability (NCI-H1395; first compound 0.8 µM) was 0.565 and the relative viability (NCI-H1395; first compound 2.53 µM) was 0.629. The relative viability (NCI-H1395; first compound 8 µM) was 0.557, the relative viability (NCI-H1651; first compound 0.08 µM) was 0.657 and the relative viability (NCI-H1651; first compound 0.253 µM) was 0.7. For the same compound, the relative viability (NCI-H1651; first compound 0.8 µM) was 0.633, the relative viability (NCI-H1651; first compound 2.53 µM) was 0.757 and the relative viability (NCI-H1651; first compound 8 µM) was 0.596. The relative viability (NCI-H1666; first compound 0.08 µM) was 0.874, the relative viability (NCI-H1666; first compound 0.253 µM) was 0.832 and the relative viability (NCI-H1666; first compound 0.8 µM) was 0.772. It also gave a relative viability (NCI-H1666; first compound 2.53 µM) of 0.699, a relative viability (NCI-H1666; first compound 8 µM) of 0.808 and a relative viability (NCI-H1993; first compound 0.08 µM) of 0.562. The relative viability (NCI-H1993; first compound 0.253 µM) was 0.572, the relative viability (NCI-H1993; first compound 0.8 µM) was 0.539 and the relative viability (NCI-H1993; first compound 2.53 µM) was 0.581. For the same compound, the relative viability (NCI-H1993; first compound 8 µM) was 0.479, the relative viability (NCI-H2085; first compound 0.08 µM) was 0.59 and the relative viability (NCI-H2085; first compound 0.253 µM) was 0.736. For the same compound, the relative viability (NCI-H2085; first compound 0.8 µM) was 0.701, the relative viability (NCI-H2085; first compound 2.53 µM) was 0.709 and the relative viability (NCI-H2085; first compound 8 µM) was 0.61. For the same compound, the relative viability (NCI-H2170; first compound 0.08 µM) was 0.617, the relative viability (NCI-H2170; first compound 0.253 µM) was 0.628 and the relative viability (NCI-H2170; first compound 0.8 µM) was 0.681. It also gave a relative viability (NCI-H2170; first compound 2.53 µM) of 0.692, a relative viability (NCI-H2170; first compound 8 µM) of 0.551 and a relative viability (NCI-H2228; first compound 0.08 µM) of 0.537. It also gave a relative viability (NCI-H2228; first compound 0.253 µM) of 0.644, a relative viability (NCI-H2228; first compound 0.8 µM) of 0.587 and a relative viability (NCI-H2228; first compound 2.53 µM) of 0.451. It also gave a relative viability (NCI-H2228; first compound 8 µM) of 0.221, a relative viability (NCI-H2347; first compound 0.253 µM) of 0.497 and a relative viability (NCI-H2347; first compound 0.8 µM) of 0.413. The relative viability (NCI-H2347; first compound 2.53 µM) was 0.39, the relative viability (NCI-H2347; first compound 8 µM) was 0.359 and the relative viability (NCI-H23; first compound 0.08 µM) was 0.696. The relative viability (NCI-H23; first compound 0.253 µM) was 0.603, the relative viability (NCI-H23; first compound 0.8 µM) was 0.379 and the relative viability (NCI-H23; first compound 2.53 µM) was 0.443. The relative viability (NCI-H23; first compound 8 µM) was 0.477, the relative viability (NCI-H322M; first compound 0.253 µM) was 0.525 and the relative viability (NCI-H322M; first compound 0.8 µM) was 0.508. For the same compound, the relative viability (NCI-H322M; first compound 2.53 µM) was 0.545, the relative viability (NCI-H322M; first compound 8 µM) was 0.572 and the relative viability (NCI-H520; first compound 0.08 µM) was 0.24. It also gave a relative viability (NCI-H520; first compound 0.253 µM) of 0.255, a relative viability (NCI-H520; first compound 0.8 µM) of 0.235 and a relative viability (NCI-H520; first compound 2.53 µM) of 0.212. It also gave a relative viability (NCI-H520; first compound 8 µM) of 0.227, a relative viability (NCI-H647; first compound 0.08 µM) of 0.656 and a relative viability (NCI-H647; first compound 0.253 µM) of 0.71. For the same compound, the relative viability (NCI-H647; first compound 0.8 µM) was 0.677, the relative viability (NCI-H647; first compound 2.53 µM) was 0.611 and the relative viability (NCI-H647; first compound 8 µM) was 0.404. It also gave a relative viability (NCI-H661; first compound 0.08 µM) of 0.691, a relative viability (NCI-H661; first compound 0.253 µM) of 0.647 and a relative viability (NCI-H661; first compound 0.8 µM) of 0.624. It also gave a relative viability (NCI-H661; first compound 2.53 µM) of 0.533, a relative viability (NCI-H661; first compound 8 µM) of 0.538 and a relative viability (NCI-H838; first compound 0.08 µM) of 0.409. The relative viability (NCI-H838; first compound 0.253 µM) was 0.388, the relative viability (NCI-H838; first compound 0.8 µM) was 0.33 and the relative viability (NCI-H838; first compound 2.53 µM) was 0.4. It also gave a relative viability (NCI-H838; first compound 8 µM) of 0.353.
